Data as given in publication PMC10914731, “Homo-BacPROTAC-induced degradation of ClpC1 as a strategy against drug-resistant mycobacteria” (Nature Communications, 2024).
Values after ≈ are worked out from the molar mass of the structure shown. Values joined by “and” are separate entries in the source; they are usually repeats but may differ in a detail not shown here. Identical values can stand only once. Like-named read-outs stand apart in the source and are kept apart here. *1 amine or outer side, *2 acyl side, *3 side chain or, on linkers, in order; H or OH if unused. Where a SMILES comes first, the peptide text is derived from it. [ ]: non-standard residue; d: D form. X1 = C#CCn1cc(C[C@H](N[*:1])C(=O)[*:2])c2ccccc21; X7 = C=CCn1cc(C[C@H](N[*:1])C(=O)[*:2])c2ccccc21; NMeLeu(5-OH,4R) = CN[C@@H](C[C@@H](C)CO)C(=O)O; Phe(βR-OMe) = CO[C@H](c1ccccc1)[C@H](N)C(=O)O; NMeL = CN[C@@H](CC(C)C)C(=O)O

What was measured:
Mtb # 11291 = assay: microbe, parasite or virus in culture; format: cell-based; details: for MIC: read-out: MIC Mtb # 11291
Mtb ATCC 35825 = assay: microbe, parasite or virus in culture; format: cell-based
Mtb # 8673 = assay: microbe, parasite or virus in culture; format: cell-based
in vitro = details: human; for efflux ratio: Caco-2; for Papp A→B: apical to basolateral; for Papp B→A: basolateral to apical
Excerpt: (§1) Supplementary Table 1. Structure-Activity Relationships part 1 (SPR, Caco-2) […]
(§2) SPR. Mean values ± standard deviation. Footnotes indicate the number of measurements performed for the respective compound: a) n = […]
(§3) [5] Permeability across Caco-2 monolayers in P(A−B): apical to basolateral and P(B−A): basolateral to apical direction (values reported in 10-
(§4) 6 cm s-1); efflux ratio = P(B−A)/P(A−B); Int. perm: mean value of P(A−B) and P(B−A). […] Influence of Trp-Nα methylation on P(A-B) and efflux
(§5) ratio. Bold: positive influence.

Caco-2 monolayers = assay: in vitro; details: for CACO permeability PEAB: apical to basolateral; for CACO permeability PEBA: basolateral to apical; for Caco-2 Int. Perm: mean value of P(A−B) and P(B−A)
Excerpt: as §1, §2, §3, §4, §5

[1] = Hepatocyte stability, mice; format: in vitro ADME; details: for Hepatocyte Mice: clearance in hepatocytes
Description: (§6) Cryopreserved hepatocytes are incubated in an appropriate buffer system containing 50% species serum. Following an acclimation period (15–30 min) in an incubator (37 °C, 5−10% CO2, 85–95% humidity) the test compound is added to the hepatocyte suspension (pH 7.4, typical cell density of about 1 million cells/mL; final concentration of test compound is 1 µM, final DMSO concentration <0.05% v/v). The cells are incubated for up to 6 h and samples are taken at 6 different time points. Samples are then quenched with acetonitrile and pelleted by centrifugation. The remaining amount of parent compound in the supernatants is then analysed by HPLC-MS/MS. Clearance is calculated from compound half-lives using the well-stirred liver model and is converted to clearance stated as % of the liver blood flow (% Qh).

[2] = format: in vitro ADME, Mice; details: for Microsomal Stability Mice: clearance in microsomes
Description: (§7) The kinetics of compound degradation in liver microsomes is assessed in an assay with 1 µmol/l of compound and 0.5 mg/ml liver microsomes in a medium of 100 mM Tris-HCl pH 7.5, 6.5 mM MgCl2 and 1 mM NADPH at 37 °C. The reaction is stopped at multiple time points by adding acetonitrile. After centrifugation, the compound concentration is measured in the supernatants by high-performance liquid chromatography (HPLC) tandem mass spectrometry (MS/MS). The results are fitted to a first-order decay and the half-lives are converted to clearance (stated as % of the liver blood flow (%Qh)) using the well-stirred liver model.

[3] = format: in vitro ADME, Rat; details: for Hepatocyte Rat: clearance in hepatocytes
Description: as §6

[4] = format: in vitro ADME, Rat; details: for Microsomal Stability Rat: clearance in microsomes
Description: as §7

[5] = Microsomal stability, human; format: in vitro ADME; details: for Microsomal Stability Human: clearance in microsomes
Description: as §7

[6] = biological target: ClpC1 NTD protein (M. tuberculosis) (Mycobacterium tuberculosis, UniProt P9WPC9); assay: biochemical; format: binding; details: for koff: read-out: koff ClpC1-NTD
Sequence of ClpC1 NTD protein (M. tuberculosis) (P9WPC9 1-156, looked up, natural form): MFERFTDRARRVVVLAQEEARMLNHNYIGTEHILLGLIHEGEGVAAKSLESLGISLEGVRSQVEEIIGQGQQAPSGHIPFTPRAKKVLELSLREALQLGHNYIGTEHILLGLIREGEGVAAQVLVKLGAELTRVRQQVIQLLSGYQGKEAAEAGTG

[7] = format: in vitro ADME, Human; details: for Hepatocyte Human: clearance in hepatocytes
Description: as §6

[8] = Mycobacterium tuberculosis, mean, n = 2 well replicates
[9] = Mycobacterium tuberculosis, single well replicates
[10] = Mycobacterium tuberculosis, ATCC35825, mean, n = 2 well replicates
[11] = Mycobacterium tuberculosis, ATCC35825, single well replicates
[12] = SPR (Supplementary Table 1), read-out: KD ClpC1-NTD Mean ± SD
[13] = SPR, single independent measurements
[14] = SPR, single independent measurements, read-out: KD ClpC1-NTD

| Structure (SMILES) | MIC (Mtb # 11291; [8]) | MIC (Mtb # 11291; [9]) | MIC Mtb # 11291 (Mtb # 11291; single well replicates) | MIC (Mtb # 11291; single well replicates) | MIC (Mtb ATCC 35825; [10]) | MIC (Mtb ATCC 35825; [11]) | MIC (Mtb ATCC 35825; single well replicates) | MIC Mtb ATCC 35825 (Mtb ATCC 35825; single well replicates) | MIC (Mtb # 8673; [8]) | MIC (Mtb # 8673; [9]) | MIC (Mtb # 8673; single well replicates) | MIC Mtb # 8673 (Mtb # 8673; single well replicates) | efflux ratio (in vitro) | Papp A→B (in vitro; Caco-2, CACO permeability PEAB) | Papp B→A (in vitro; Caco-2, CACO permeability PEBA) | CACO permeability PEAB (Caco-2 monolayers) | CACO permeability PEBA (Caco-2 monolayers) | Caco-2 Int. Perm (Caco-2 monolayers) | Hepatocyte Mice [1] | Microsomal Stability Mouse QH [2] | other results |
| --- | --- | --- | --- | --- | --- | --- | --- | --- | --- | --- | --- | --- | --- | --- | --- | --- | --- | --- | --- | --- | --- |
| CC(=O)Nc1ccc(/C=N/NC(N)=S)cc1 [Thiacetazone] | 4.2 µM and 1 µg/mL | 4.23 µM and 1 µg/mL | 1 µg/mL (≈ 4.23 µM) | 4.23 µM (≈ 1 µg/mL) | 4.2 µM and 1 µg/mL | 1 µg/mL and 4.23 µM | 4.23 µM (≈ 1 µg/mL) | 1 µg/mL (≈ 4.23 µM) | > 542 µM and > 128 µg/mL | > 542 µM and > 128 µg/mL | >541.68 µM | >128 µg/mL |  |  |  |  |  |  |  |  |  |
| C=CCn1cc(C[C@@H]2NC(=O)[C@H](C(C)C)NC(=O)[C@H](CC(C)C)N(C)C(=O)[C@H](C(C)C)NC(=O)[C@H]([C@H](OC)c3ccccc3)NC(=O)[C@H](C)NC(=O)[C@H](C[C@@H](C)CO)N(C)C2=O)c2ccccc21 [Compound 13] (cyclo(A[Phe(βR-OMe)]V[NMeL]V[X7][NMeLeu(5-OH,4R)])) |  |  |  |  |  |  |  |  |  |  |  |  | 7.9 | 4.5 ×10⁻⁶ cm/s | 33 ×10⁻⁶ cm/s | 2.4 ×10⁻⁶ cm/s | 18.999999999999998 ×10⁻⁶ cm/s | 10.7 10-6 cm s-1 | 59 %Qh | >88.400% | Hepatocyte Stability Mouse QH ([1]; Mouse): 58.852%; Microsomal Stability Mice [2]: > 88 %Qh; Hepatocyte Stability Rat QH [3]: 65.282%; Hepatocyte Rat [3]: 65 %Qh; Microsomal Stability Rat QH [4]: >87.900%; Microsomal Stability Rat [4]: > 88 %Qh; Microsomal Stability Human QH [5]: >88.400%; Microsomal Stability Human [5]: > 88 %Qh; Kd [6, 12]: 3.6 ± 0.2 nM; koff ClpC1-NTD [6, 13]: 0.1 s⁻¹; Kd [6, 14]: 3.66 nM and 3.44 nM; koff [6, 13]: 0.07 s⁻¹; Hepatocyte Stability Human QH [7]: 18.968%; Hepatocyte Human [7]: 19 %Qh |
| [H]/N=C(/N)N[C@H]1[C@H](O)[C@@H](O)[C@H](O[C@@H]2O[C@@H](C)[C@](O)(C=O)[C@H]2O[C@@H]2O[C@@H](CO)[C@H](O)[C@@H](O)[C@@H]2NC)[C@@H](N/C(N)=N\[H])[C@@H]1O [Streptomycin] | 0.4 µM and 0.3 µg/mL | 0.43 µM and 0.25 µg/mL | 0.25 µg/mL (≈ 0.43 µM) | 0.43 µM (≈ 0.25 µg/mL) | 27.5 µM and 16 µg/mL | 16 µg/mL and 27.5 µM | 27.51 µM (≈ 16 µg/mL) | 16 µg/mL (≈ 27.5 µM) | 6.9 µM and 4 µg/mL | 6.88 µM and 4 µg/mL | 6.88 µM (≈ 4 µg/mL) | 4 µg/mL (≈ 6.88 µM) |  |  |  |  |  |  |  |  |  |
| C#CCn1cc(C[C@@H]2NC(=O)[C@H](C(C)C)NC(=O)[C@H](CC(C)C)N(C)C(=O)[C@H](C(C)C)NC(=O)[C@H](Cc3ccccc3)NC(=O)[C@H](C)NC(=O)[C@H](C[C@@H](C)CO)N(C)C2=O)c2ccccc21 [SI-72] (cyclo(AFV[NMeL]V[X1][NMeLeu(5-OH,4R)])) |  |  |  |  |  |  |  |  |  |  |  |  | 61.4 | 0.17 ×10⁻⁶ cm/s | 15 ×10⁻⁶ cm/s | 0.29000000000000003 ×10⁻⁶ cm/s | 9.999999999999999 ×10⁻⁶ cm/s | 6.4 10-6 cm s-1 | 71 %Qh | >88.400% | Papp A→B (in vitro; Caco-2, Caco-2 permeability P (A-B)): 0.2 ×10⁻⁶ cm/s; Papp B→A (in vitro; Caco-2, Caco-2 permeability P (B-A)): 12.5 ×10⁻⁶ cm/s; Microsomal Stability Mice [2]: > 88 %Qh; Hepatocyte Stability Rat QH [3]: 81.5% and 81.75%; Hepatocyte Rat [3]: 82 %Qh; Microsomal Stability Rat QH [4]: 87.300%; Microsomal Stability Rat [4]: 87 %Qh; Microsomal Stability Human QH [5]: >88.400%; Microsomal Stability Human [5]: > 88 %Qh; Kd [6, 12]: 14 ± 6 nM; koff ClpC1-NTD [6, 13]: 0.05 s⁻¹; Kd [6, 14]: 17.7 nM and 9.9 nM; koff [6, 13]: 0.07 s⁻¹; Hepatocyte Stability Human QH [7]: 23.35% and 19.57%; Hepatocyte Human [7]: 12 %Qh |
